Consider seven molecules from patent US11584775B2, “C4-modified oleanolic acid derivatives for inhibition of IL-17 and other uses” (REATA PHARMACEUTICALS, INC., priority 2015, dated 2023).

Where only a bound is given, the exact number is not on record here.

The test system of one assay is hIL17. The assay is described as follows: IL-17 release from differentiated primary human T-cells (IL-17A HTRF assay). Format: cell-based. The settings on record: inhibition of IL-17A levels; primary human CD4+ T cells differentiated into Th17 cells, 46-hour incubation. How it is done: D. IL-17 Release from Differentiated Primary Human T-Cells and Cell Viability
Primary human cryopreserved CD4+ T Cells (Lonza, donor #0000402103) were plated in Lymphocyte Growth Medium-3 (LGM-3, Lonza) according to the manufacturer's recommendations, and allowed to recover for approximately 3 hours at 37° C. with 5% CO2 in a humidified atmosphere. After the recovery step, cells were collected by centrifugation and re-plated in 96-well plates at a density of ˜140,000 cells per well in LGM-3 medium that contained DMSO (vehicle) or test compound (2-500 nM or 4-1000 nM concentration range). Triplicate wells were plated for each test condition. DMSO (final concentration ≤0.1%) was used as the vehicle. Immediately after plating, CD4+ T cells were activated by adding Dynabeads Human T-Activator CD3/CD28 (Life Technologies; bead-to-cell ratio of 1:2.5) and differentiated into Th17 cells by adding a mixture of the following cytokines: transforming growth factor-β (TGF-β, 5 ng/mL), IL-6 (20 ng/mL), IL-23 (20 ng/mL), and […] (10 ng/mL). Undifferentiated control cells received only cytokine IL-2 (50 ng/mL). All human recombinant cytokines were purchased from R&D Systems. Following a 46-hour incubation at 37° C. with 5% CO2 in a humidified atmosphere, the plates were centrifuged for 3 minutes at 250×g, and half of the supernatant was transferred to a new plate to be used in the IL-17A assay (see below). Cell viability was assessed in the original plate using the CyQuant Direct Assay (Life Technologies). CyQuant values from test compound samples were normalized to those from DMSO-treated samples. The concentration of IL-17A in the supernatant was measured using the Homogeneous Time-Resolved Fluorescence (HTRF) assay (Cisbio Bioassays) according to the manufacturer's protocol. The assay was performed at room temperature in low volume, solid white 384-well plates (Greiner Bio-One). Samples and standards (serially-diluted human recombinant IL-17A (0 to 5,000 pg/mL concentration range; Cisbio Bioassays) were incubated with the anti-human IL-17A antibody conjugate for 16 hours and fluorescence was measured using a Pherastar FS microplate reader (BMG Labtech) in the HTRF mode (excitation at 337 nm and emission at 665 nm and 620 nm). IL-17A concentrations were assessed in duplicate aliquots of supernatant from each well resulting in a total of six readings per test condition. The 665 nm/620 nm signal ratio was calculated and the concentration of IL-17A in each sample was determined by interpolation from the standard curve. IL-17A values from test compound samples were normalized to those from DMSO-treated samples. Data were analyzed using GraphPad Prism version 6.00 for Windows (GraphPad Software, La Jolla Calif. USA). A non-linear regression analysis with log (inhibitor) vs. normalized response using a variable slope was applied to fit the data and determine the IC50 values for inhibition of IL-17A levels and cell viability.

The subject of the next assay is NRF2. The assay is described as follows: AREc32 luciferase reporter assay. The settings on record: EC2×: concentration required to increase GST ARE Luciferase reporter activity by 2-fold; AREc32 cells, 19 hours. Format: cell-based, human. From the text: B. AREc32 Luciferase Reporter Assay
The AREc32 luciferase reporter assay allows for quantitative assessment of the endogenous activity of the Nrf2 transcription factor in cultured mammalian cells. AREc32 cells are derived from MCF-7 human breast carcinoma cells that were stably transfected with a reporter construct that contains the firefly luciferase gene located downstream of eight copies of the rat GSTA2 antioxidant response element (ARE) sequence (Wang et al., 2006; CXR Biosciences). Active NRF2 binds to the ARE sequences and increases expression of the firefly luciferase gene. To assess the NRF2-activating potential of the test compounds, AREc32 cells were plated in black 96-well plates at a density of 20,000 cells per well in triplicate in DMEM+10% FBS+0.8 mg/mL Geneticin and incubated at 37° C. with 5% CO2 in a humidified atmosphere. The next day, cells were treated with DMSO (vehicle) or test compound (concentration ranges of 0.4-200 nM or 2-1000 nM) for 19 hours. Luciferase activity was determined using the ONE-Glo Luciferase assay (Promega). The luminescence signal was measured on a BMG Pherastar microplate reader. The mean luminescence value from test compound-treated wells was normalized to that from DMSO-treated wells and was represented as fold-induction. Data were analyzed using GraphPad Prism version 6.00 for Windows, GraphPad Software, La Jolla Calif. USA. A non-linear regression curve with log (agonist) vs. response using a variable slope was used to fit the data. Where applicable, a maximum threshold value of 50-fold over DMSO was set. EC2× values were interpolated from the curve. EC2× corresponds to the concentration of test compound required to increase GST ARE Luciferase reporter activity by 2-fold.

The test system of assay [1] is IFNγ-induced Nitric Oxide production. The experiment in a line: Nitric oxide production assay in RAW 264.7 mouse macrophages. Format: cell-based. As to conditions: RAW264.7, suppression of IFNγ-induced NO production normalized to cell viability (WST-1), RAW 264.7, 24 hours IFNγ. Here is the method: A. Nitric Oxide Production Assay and Cell Viability
RAW 264.7 mouse macrophages were plated in 96-well plates at a density of 30,000 cells per well in triplicate in RPMI 1640+0.5% FBS and incubated at 37° C. with 5% CO2 in a humidified atmosphere. The next day, cells were pre-treated with DMSO (vehicle) or test compound (concentration ranges of 0.4-200 nM or 2-1000 nM) for 2 hours and then treated with recombinant mouse IFNγ (R&D Systems) for 24 hours. Nitric oxide concentration in media was determined using the Griess reagent system (Promega). Cell viability was determined using WST-1 reagent (Roche). Values from test compound samples were normalized to those from DMSO/IFNγ-treated samples. IC50 values were determined based on the suppression of IFNγ-induced Nitric Oxide production normalized to cell viability.

Another assay concerns the target T1, human RORγ (Homo sapiens, UniProt P51449).
T1 sequence (P51449 269-508 limits assumed): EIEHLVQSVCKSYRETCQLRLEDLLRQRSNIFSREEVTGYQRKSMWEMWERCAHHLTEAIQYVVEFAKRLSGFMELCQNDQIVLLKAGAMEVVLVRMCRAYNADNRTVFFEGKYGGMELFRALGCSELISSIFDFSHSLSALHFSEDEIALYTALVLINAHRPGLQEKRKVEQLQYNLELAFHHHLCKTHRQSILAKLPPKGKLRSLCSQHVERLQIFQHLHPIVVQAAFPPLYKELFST
The assay is described as follows: RORγ assay (GAL4-RORγ hybrid luciferase reporter, inverse-agonist activity). It is filed as cell-based. The settings on record: GAL4-RORγ hybrid reporter cells, 23 hours. From the text:
C. RORγ Assay and Cell Viability
The RORγ assay system was purchased from Indigo Biosciences. This nuclear receptor assay utilizes a human cell line that has been engineered to express a hybrid form of the Human RAR-related Orphan Receptor Gamma (RORγ) at high levels. The N-terminal DNA binding domain (DBD) of the native RORγ receptor was substituted with the yeast GAL4-DBD to generate the GAL4-RORγ hybrid nuclear receptor. The reporter cell line is transfected with a plasmid that encodes the beetle luciferase gene under the control of the GAL4 upstream activating sequence (UAS). GAL4 binds to the UAS and increases transcription of downstream target genes. […] To assess the RORγ inverse-agonist activity of the test compounds, reporter cells were plated in white 96-well plates in triplicate and were treated with DMSO (vehicle) or test compound (concentration ranges of 0.4-200 nM or 2-1000 nM) at 37° C. with 5% CO2 in a humidified atmosphere for 23 hours. After this incubation, luciferin was added to the wells and luciferase activity was determined by measuring the luminescence signal using a BMG Pherastar microplate reader. Viability was determined using the Live Cell Multiplex Assay (Indigo Biosciences). Values from test compound samples were normalized to those from DMSO-treated samples. Data were analyzed using GraphPad Prism version 6.00 for Windows (GraphPad Software, La Jolla Calif. USA). A non-linear regression analysis with log (inhibitor) vs. normalized response using a variable slope was applied to fit the data and determine the IC50 values for inhibition of RORγ and cell viability.

Regarding `COC(=O)C[C@]1(C)C(=O)C(C#N)=C[C@]2(C)C3=CC(=O)[C@@H]4[C@@H]5CC(C)(C)CC[C@]5(C(=O)OC)CC[C@@]4(C)[C@]3(C)CC[C@H]21` [Compound T21, methyl (4aS,6aR,6bS,8aR,9S,12aS,14aR,14bS)-11-cyano-9-(2-methoxy-2-oxoethyl)-2,2,6a,6b,9,12a-hexamethyl-10,14-dioxo-1,3,4,5,6,6a,6b,7,8,8a,9,10,12a,14,14a,14b-hexadecahydropicene-4a(2H)-carboxylate], the half-inhibitory concentration (IC50) in the assay on hIL17 was determined as 33 nM; in assay [1], 105 nM; on human RORγ it was 203 nM. In addition, in the assay with NRF2, the “EC2x: concentration giving 2-fold induction of ARE luciferase reporter” value was 269 nM.

`CC1(C)CC[C@]2(C(=O)NCC(F)(F)F)CC[C@]3(C)[C@H](C(=O)C=C4[C@@]5(C)C=C(C#N)C(=O)C(C)(C)[C@@H]5CC[C@]43C)[C@@H]2C1` [Comparison Compound #2, reference compound]: the figures for the 50% inhibitory concentration (IC50) (in the assay on hIL17; in assay [1]; on human RORγ) were 40 nM, 4.5 nM and 104 nM, respectively. The “EC2x: concentration giving 2-fold induction of ARE luciferase reporter” value in the assay with NRF2 is on record as 53 nM.

For `Cc1nnc([C@]23CCC(C)(C)C[C@H]2[C@H]2C(=O)C=C4[C@@]5(C)C=C(C#N)C(=O)[C@@](C)(O)[C@@H]5CC[C@@]4(C)[C@]2(C)CC3)o1` [Compound T44, (4S,4aR,6aS,6bR,8aS,12aS,12bR,14bS)-4-hydroxy-4,6a,6b, 11,11,14b-hexamethyl-8a-(5-methyl-1,3,4-oxadiazol-2-yl)-3,13-dioxo-3,4,4a,5,6,6a,6b,7,8,8a,9,10,11,12,12a,12b,13,14b-octadecahydropicene-2-carbonitrile], the results for the 50% inhibitory concentration (IC50) (with hIL17; in assay [1]; on human RORγ) were 50 nM, 72.8 nM and 236 nM, respectively. In addition, the “EC2x: concentration giving 2-fold induction of ARE luciferase reporter” value in the assay on NRF2 is on record as 156 nM.

For `CC1(C)CC[C@]2(C(=O)NCC(F)(F)F)CC[C@]3(C)[C@H](C(=O)C=C4[C@@]5(C)C=C(C#N)C(=O)[C@@](C)(CO)[C@@H]5CC[C@]43C)[C@@H]2C1` [Compound T22, (4aS,6aR,6bS,8aR,9R,12aS,14aR,14bS)-11-cyano-9-(hydroxymethyl)-2,2,6a,6b,9,12a-hexamethyl-10,14-dioxo-N-(2,2,2-trifluoroethyl)-1,3,4,5,6,6a,6b,7,8,8a,9,10,12a,14,14a,14b-hexadecahydropicene-4a(2H)-carboxamide], the half-inhibitory concentration (IC50) in the assay on hIL17 was determined as 50 nM; in assay [1], 13.5 nM; at human RORγ, 256 nM. Moreover, in the assay with NRF2, the “EC2x: concentration giving 2-fold induction of ARE luciferase reporter” value is on record as 103 nM.

For `CN(C)C(=O)[C@]1(C)C(=O)C(C#N)=C[C@]2(C)C3=CC(=O)[C@]45OC(=O)[C@@]6(CCC(C)(C)C[C@H]64)CC[C@@]5(C)[C@]3(C)CC[C@@H]12` [Compound T36, (4S,4aR,6aR,6bS,8aS,12aR,12bS,14bS)-2-cyano-N,N,4,6a,6b, 11,11,14b-octamethyl-3,13,16-trioxo-4,4a,5,6,6a,6b,7,8,10,11,12,12a,13,14b-tetradecahydro-3H,9H-12b,8a-(epoxymethano)picene-4-carboxamide], the figures for the half-inhibitory concentration (IC50) (in the assay on hIL17; in assay [1]) were 126 nM and > 1000 nM, respectively. In the assay on NRF2, the “EC2x: concentration giving 2-fold induction of ARE luciferase reporter” value was >1000 nM.

Turning to `CC1(C)CC[C@@]23CC[C@@]4(C)[C@]5(C)CC[C@H]6C(C)(C)C(=O)C(C#N)=C[C@]6(C)C5=CC(=O)[C@]4(OC2=O)[C@@H]3C1` [Comparison Compound #6, reference compound], the half-maximal inhibitory concentration (IC50) in the assay with hIL17 was 15 nM; in assay [1], 0.7 nM; at human RORγ, 159 nM. The “EC2x: concentration giving 2-fold induction of ARE luciferase reporter” value in the assay with NRF2 was found to be 2 nM.

On to `CCNC(=O)[C@]12CCC(C)(C)C[C@H]1[C@H]1C(=O)C=C3[C@@]4(C)C=C(C#N)C(=O)[C@@](C)(CO)[C@@H]4CC[C@@]3(C)[C@]1(C)CC2` [Compound T25, (4aS,6aR,6bS,8aR,9R,12aS,14aR,14bS)-11-cyano-N-ethyl-9-(hydroxymethyl)-2,2,6a,6b,9,12a-hexamethyl-10,14-dioxo-1,3,4,5,6,6a,6b,7,8,8a,9,10,12a,14,14a,14b-hexadecahydropicene-4a(2H)-carboxamide], for which the values for the half-maximal inhibitory concentration (IC50) (in the assay with hIL17; in assay [1]) were 67 nM and 16 nM, respectively. Moreover, in the assay with NRF2, the “EC2x: concentration giving 2-fold induction of ARE luciferase reporter” value was determined as 131 nM.
